Reference: patent US7560473B2 (Institute of Pharmacology and Toxicology Academy of …, priority 2001, dated 2009)

How the values were obtained:
[1] = test system: outward potassium currents in smooth muscle cells derived from intrapulmonary arteries; assay: Whole cell recording of outward potassium currents in intrapulmonary arterial SMCs and glibenclamide antagonism; assay type: cell-based, Wistar rats
Description: Effects of Compound 1 on Potassium Currents in Isolated Intrapulmonary arterial SMCs and Glibenclamide Antagonism
The outward potassium currents were recorded in smooth muscle cells derived from intrapulmonary arteries of normotensive rats. Cells were sealed, clamped at −70 mV and depolarized to +50 mV at an increasing step of 10 mV with 100 ms duration. After application of compound 1 at the concentration of 10 μmol L^−1, the amplitude of the currents in 5/8 cells was increased to 115.4±2.8% compared with control recorded before compound application (P<0.01 n=5). While in the presence of both compound 1 and glibenclamide at the concentration of 10 μmol L^−1 and 30 μmol L^−1 respectively, the amplitude of the outward potassium currents in 7/7 cells was detected to be 83.1±8.3% of control, which was decreased compared with the presence of compound 1 only (P<0.01 n=7).
2. Preparation of smooth muscle cells from intrapulmonary arteries: Male Wistar rats were killed by decapitation. The intrapulmonary arteries were isolated and moved quickly into physiological salt solutions (PSS, 4° C.) Then the arteries were cut longitudinally and cut into small segments after scraping off the endothelium gently with a cotton swab. The fragments were then incubated at 37° C. in Ca^2+-free PSS for 20 to 30 minutes. […]

jirds = assay: Pan-cerebral ischemia-reperfusion injury in jirds (BCAO); assay type: in vivo; details: 7 days, dosage-dependent
Description: Biological Activity Experiment 7 The Protective Effects of compound 1 on Pan-Cerebral Ischemia-Reperfusion Injury in Jirds
The methods of biological activity experiment were carried out as follows: equal amounts of male and female jirds (60-70 g) were subjected to bilateral cervical aorta occlusion (BCAO) under narcotism. The drugs or equal amounts of physiological saline solution were injected peritoneally at 30 min before occlusion. After the blood flow in the bilateral cervical aorta was blocked for 5 min, reperfusion was restored and the drug was administered once a day for 7 days. During the BCAO, the body temperature was maintained at 37° C. In the control group, the cervical aorta was only exposed, while not blocked for blood flow. The animals were divided in 6 groups randomly: control group, ischemic group and compound-treated group (0.5, 1.0, 2.0 and 4.0 mg.kg^−1, ip). 7 days after BCAO, the animals were deeply anesthetized by injecting peritoneally 80 mg.kg^−1 pentobarbitol sodium, and perfused with 50 mL physiological saline solution and 4% paraformaldehyde through heart. The brain was dissected, immersed in 4% paraformaldehyde for 24 h, dehydrated, cleared, embedded with paraffin, sectioned and stained with HE. TUNEL staining was employed to detect the nerve apoptosis.

cordical nerve = assay: Cordical nerve apoptosis induced by low level oxygen and glucose; assay type: cell-based, Wistar rats; details: for Apoptosis percentage: low level oxygen and glucose 16 h, flow cytometer, control 2.3 ± 1.2, low oxygen and glucose alone 23.8 ± 7.4, means ± SD
Description: Biological Activity Experiment 9 The Inhibition Effects of Compound 1 on the Cordical Nerve Apoptosis Induced by Low Level Oxygen and Glucose
The methods of biological activity experiment 9 were carried out as follows: The cordical nerve were prepared from 12-hour old Wistar rats and cultured. See G. Y. Yang, A. L. Bentz. Reperfusion-induced injure to the blood-brain after middle cerebral artery occlusion in rats. Stroke, 1994,25:1658-1665. Serum-free DMEM medium was applied 12 days later. The preparation was incubated in low oxygen tank (95% N2+5% CO2) for 8, 16 and 24 h respectively, and then restored oxygen to normal level for another 24 h. The experiments on five groups were as follows: the control group was cultured for 14 days with normal medium; low level oxygen and glucose treated group was cultured with normal medium for 12 days, then with serum-free medium containing low level oxygen and glucose for 16 h and with normal oxygen level for another 24 h; compound 1 treated group was cultured in serum-free medium containing low level oxygen and glucose for 16 h and with normal oxygen level for another 24 h, then added respectively different concentrations of compound 1 (0.1, 1.0 and 10 umol.L^−1). As to the method for detecting apoptosis by the electron microscopy and flow cytometer, refer to C.Du, R.Hu, C. A. Csernansky, et al. Very delayed infarction after mild focal cerebral ischemia: a role for apoptosis. J.Cereb.Flow Metab., 1996,16:195-201; M.Chopp, Y.Li, N.Jiang, et al. Antibodies against adhesion molecules reduced apoptosis after transient middle artery occlusion in rat brain. J.Cereb.Flow Metab., 1996,16:578-584.

## CC(C)NC(C)(C)C(C)C [compound 1, N-(1-methylethyl)-2,3-dimethyl-2-butylamine]
[1]; compound 1 10 μmol L^−1, 5/8 cells, n=5
  amplitude of the outward potassium currents compared with control: 115.4±2.8%
[1]; compound 1 10 μmol L^−1 in the presence of glibenclamide 30 μmol L^−1, 7/7 cells, n=7
  amplitude of the outward potassium currents, of control: 83.1±8.3%
jirds; 0.5-4.0 mg.kg^−1.d^−1 ip
  number of dead pyramidal nerve of hippocampal CA1 region (HE staining): significantly decreased the number of dead pyramidal nerve
jirds; 0.5-4.0 mg.kg^−1 ip
  apoptosis of pyramidal nerve of hippocampal CA1 region (TUNEL): significantly alleviate the apoptosis
Cordical nerve; 0.1 umol · L^−1
  Apoptosis percentage: 17.6 ± 5.8%
Cordical nerve; 1 umol · L^−1
  Apoptosis percentage: 13.9 ± 5.2 %
Cordical nerve; 10 umol · L^−1
  Apoptosis percentage: 10.8 ± 4.1 %
Cordical nerve; 10 umol.L^−1, low level oxygen and glucose
  apoptotic changes of cordical nerve cells under electron microscopy (in words): the above mentioned changes were hardly observed
